{"source": "patent US6391911B1", "about": "“Coadministration of lucanthone and radiation for treatment of cancer” (priority 1999, dated 2002)", "key": {"[1]": {"conditions": "reason for use as imaging control; cited from earlier work"}, "[2]": {"test": "Gamma camera imaging of radiolabeled rat models", "assay_type": "in vivo", "conditions": "rats; intravenous radiotracer; pinhole collimator", "method": "Rats were injected with ^125I-labeled lucanthone and ^99mTc-pertechnetate. Lucanthone hydrochloride used for ^125I labeling was 97.5% pure by HPLC mass spectroscopy (Sterling Winthrop Research Institute, R009CJ). ^125I labeled lucanthone was prepared by a modification of the chloramine T method, to be described in detail in a separate publication [Moran JK, Li Y, Deng HF, Labeling and biodistribution of lucanthone (in preparation)]. The product identity was confirmed by thin layer chromatography. ^99mTc-pertechnetate was obtained from a conventional laboratory supplier. The image acquisitions were performed using a Picker Dyna Camera 4C using Nuclear MAC imaging software running on a Power MAC 8100/80 AV computer. Images were obtained using a pinhole collimator with a collimator to rat distance of 6.5 cm.\nEach animal was imaged using ^99mTc-pertechnetate (3.7 MBq). […] Therefore, a photopenic area in the image corresponds to the location of the rat brain.\nTwenty-four hours following administration of ^99mTc-pertechnetate, ^125I lucanthone was administered to each test animal. Images were acquired in the left lateral position every 10 min after intravenous administration of 1.1 MBq of ^125I lucanthone."}, "[3]": {"test": "Tissue distribution of ^3H lucanthone in tumor-bearing mice", "assay_type": "in vivo, C3H-HeHa mice", "method": "Ten six-week-old 18-20 gram female C3H-HeHa mice obtained from West Seneca Laboratories (West Seneca, N.Y.) were injected subcutaneously in the right nipple line with 1.4×10^6 viable C3H-BA mammary adenocarcinoma cells. With such inocula, 1-2-mm tumors were detectable within 3 days. If allowed to grow, they killed the mice in 36-38 days. This highly invasive tumor could grow rapidly from inocula as low as 10^4 cells.\nIn order to minimize the influence of tumor size on drug distribution, drug was administered at various times during the course of tumor growth. Each day, from the seventh to eleventh day after injection, two mice were injected intraperitoneally with 1.27 mg^3 H lucanthone methanesulfonate. Lucanthone methanesulfonate, after being labeled by tritium exchange of hydrogen, was 96%-99% pure by thin layer chromatography. Before injection in mice, the specific radioactivity of ^3H lucanthone, originally 135 MBq/mg, was reduced to 67.5 MBq/mg by dilution with unlabeled lucanthone methanesulfonate. The total dose of radioactivity was 8.74 MBq (236 μCi) in 0.44 ml. All mice were sacrificed on the twelfth day, at which time the tumors were all approximately the same size, 7-12 mm in greatest diameter.\nDistribution of tritium-labeled material in tissues represents lucanthone and its metabolites. Following sacrifice by cervical dislocation, the wet weight of samples of various organ or tumor tissue was determined immediately. Samples (about 50 mg each) were placed in glass scintillation vials with metal foil-lined caps. An alkaline tissue solubilizer, Protosol (DuPont—NEN), was added for digestion; radioactivity was determined by liquid scintillation techniques, as recommended by the manufacturer. Quench corrections were made for each sample to avoid interference from colored substances in individual samples. Hair was shaved from the skin samples to avoid its contribution to the weight of the sample."}, "[4]": {"conditions": "systemic chemotherapy; cited from earlier work"}, "[5]": {"test": "Tolerability in human clinical studies", "assay_type": "in vivo", "method": "Cancer patients were administered lucanthone hydrochloride in a total dose of 10 mg/Kg per day. The patients were given the drug in three divided doses in order to maintain blood and tissue levels. […] Lucanthone hydrochloride 250 mg tablets for clinical use [GRH/0/1581] were a gift of the Wellcome Foundation. Nausea and other side effects were not observed when patients received 10 mg/Kg.\nStandard whole brain radiation, 30 Gy with an 8 MeV linear accelerator in ten equal doses over 2 weeks, was given in conjunction with lucanthone at 10 mg/Kg in three doses/day. Patients were assigned to radiation alone or radiation and lucanthone from a table of random numbers. Tumor sizes for each patient were determined before and after therapy independently by two neuroradiologists who had no knowledge of the protocol assignments.\nBoth treatments were omitted on weekends and were stopped after ten treatment days. […] No other chemotherapy was given during this time, except steroids, which is standard treatment with patients with brain metastases."}}, "note": "Entries after “also recorded” stand apart in the source; their conditions may differ. Where a name gives a salt, the structure may show the parent alone. Starred links: 1 amine or outer side, 2 acyl side, 3 side chain; linkers in the order of their positions; H or OH if unused. Positions of bridges follow the written chain, without caps; N, C: chain ends. Non-standard residues stand in square brackets, D forms with d. Residues, ends and D or L forms follow the SMILES beside them. Chains are numbered I, II in the order given. Actinocin(9to1) = Cc1c2oc3c(C)ccc(C(=O)[*:1])c3nc-2c(C(=O)[*:2])c(N)c1=O; NMeV = CN[C@H](C(=O)O)C(C)C; Sar = CNCC(=O)O", "data": [{"compound": "^99mTc-pertechnetate", "values": [{"measurement": "Crossing of the blood-brain barrier (known property)", "setting": "[1]", "result": "known not to cross the blood-brain barrier"}, {"measurement": "Photopenic area at the location of the brain in gamma camera scans", "setting": "[2]", "result": "show a photopenic area in the animal's head"}]}, {"compound": "CCN(CC)CCNc1ccc(C)c2sc3ccccc3c(=O)c12", "note": "[^3H lucanthone]", "values": [{"measurement": "^3H label in tumor tissue relative to skin and muscle", "setting": "[3]; first and second days following intraperitoneal drug injection, C3H-BA mammary adenocarcinoma", "result": "Enrichment of the ^3H label was detected in tumor tissue relative to skin and muscle"}, {"measurement": "^3H lucanthone uptake and removal in brain, lung and spleen", "setting": "[3]; intraperitoneal injection", "result": "little difference"}, {"measurement": "^3H label concentration in livers and kidneys compared with tumor", "setting": "[3]; intraperitoneal injection, principal excretory organs", "result": "higher concentrations were found than in the tumor"}]}, {"compound": "Cc1c2oc3c(C)ccc(C(=O)N[C@@H]4C(=O)N[C@H](C(C)C)C(=O)N5CCC[C@H]5C(=O)N(C)CC(=O)N(C)[C@@H](C(C)C)C(=O)O[C@@H]4C)c3nc-2c(C(=O)N[C@@H]2C(=O)N[C@H](C(C)C)C(=O)N3CCC[C@H]3C(=O)N(C)CC(=O)N(C)[C@@H](C(C)C)C(=O)O[C@@H]2C)c(N)c1=O", "note": "[actinomycin D] (I: T[dV]P[Sar][NMeV] / II: T[dV]P[Sar][NMeV]; ester I:1-I:C, II:1-II:C; linker I:N-II:N via Actinocin(9to1))", "values": [{"measurement": "Crossing of the blood-brain barrier", "setting": "[4]", "result": "fail to cross the blood-brain barrier in useful amounts"}]}, {"compound": "COc1cc([C@@H]2c3cc4c(cc3[C@@H](O[C@@H]3O[C@@H]5CO[C@@H](C)O[C@H]5[C@H](O)[C@H]3O)[C@H]3COC(=O)[C@H]23)OCO4)cc(OC)c1O", "note": "[etoposide]", "values": [{"measurement": "Crossing of the blood-brain barrier", "setting": "[4]", "result": "fail to cross the blood-brain barrier in useful amounts; also recorded: crosses the blood-brain barrier poorly"}]}, {"compound": "CCN(CC)CCNc1ccc(C)c2sc3ccccc3c(=O)c12", "note": "[lucanthone hydrochloride]", "values": [{"measurement": "Tolerability of total dose", "setting": "[5]; cancer patients, 10 mg/Kg per day in three divided doses", "result": "well tolerated"}, {"measurement": "Nausea and other side effects", "setting": "[5]; patients received 10 mg/Kg", "result": "not observed"}]}]}
